In the experiment the test system is d(AAAATTTT)2 (DNA, duplex) AAAATTTT
The experiment is described as follows: X-ray crystallography (2.1 Å). The conditions noted are these: 8 mM MnCl2; 40 mM sodium cacodylate pH 6.5, 0.5 mM spermine, 5% MPD, 15 °C; 0.25 mM duplex, 0.75 mM CD27.

Structures are written as SMILES.

On to `c1cc(Nc2ccc(NC3=NCCN3)cc2)ccc1NC1=NCCN1`, for which the binding entry is “yes”.

The record behind these values is publication PMC4051503 (2014).
